In test [1] the target is T1, GABAB receptor (Rattus norvegicus, UniProt O88871+Q9Z0U4).
T1 construct: from tissue; host or cells: rat brain cortex membranes
In words: In vitro [35S]GTPγS binding assay in rat cortical membranes. Type of test: biochemical. Particulars: PAM EC50, [35S]GTPγS binding, read-out: In vitro PAM potency. How it is done:
In Vitro [^35S]GTPγS Binding Assay in Rat Cortical Membranes
Cortices of freshly harvested rat brains were dissected on an ice-cold surface and homogenized by a glass Dounce homogeniser immediately in ice-cold buffer containing 50 mM Tris, 5 mM MgCl2 and 1 mM EDTA (pH=7.6). Tissue homogenates were centrifuged at 40000 g for 15 min at 4° C. Membrane pellets were resuspended in the same buffer and membranes were incubated for 10 min at 30° C. in a shaking water bath to eliminate endogenous GABA. Homogenates were centrifuged again under the same conditions. The final pellets were resuspended in ice-cold buffer (pH=7.6) containing 50 mM Tris, 100 mM NaCl, 7 mM MgCl2, 1 mM EDTA and 1 mM dithiotreithol (DTT) to yield a concentration of 20 mg tissue weight/ml and frozen at −70° C. until use. The assay was done in a buffer containing 50 mM Tris (pH=7.4), 100 mM NaCl, 7 mM MgCl2, 1 mM EDTA and 1 mM DTT. Each assay tube contained 150 μL GDP (in a final concentration of 50 μM), 100 μL ligand and 125 μL of the membrane suspension ([…]). The assay tubes were preincubated for 10 min at 30° C. to assure equilibrium. Nonspecific binding was determined in the presence of 10 μM GTPγS; basal binding was determined in the presence of buffer only. After addition of […] [^35S]GTPγS in a volume of 25 μL to the tubes, membranes were incubated for an additional 60 min at 30° C. The assay was terminated by rapid filtration through Packard UniFilter GF/B using a Packard harvester and washed four times with 1 ml ice-cold buffer. After drying the filters at 40° C. for 1 h, 40 μL Microscint (Packard) was added to the filters and radioactivity of the filters was determined by a TopCount NXT (PerkinElmer, Waltham, MA; Alper and Nelson, Eur. J. Pharmacol. 1998, 343, 303-312; Rinken et al, Biochem. Pharmacol. 1999, 57, 155-162). Data thus gathered were used to determine PAM EC50 values for each compound as primary in vitro activity end point.
In Table 1 compounds of this invention measured in the [^35S]GTPγS binding assay are listed.
(In general: Binding of GTPγS marks nucleotide exchange on a G protein.)

Test [2] relates to male Wistar rats. Description: Foot shock-induced ultrasonic vocalization (USV) in adult rats. The format is in vivo. Particulars: Rattus norvegicus, po, p.o., 1 h before shocking. How it is done: Foot Shock-Induced Ultrasonic Vocalization (USV) in Adult Rats
Under stressful conditions, adult rats emit 22 kHz ultrasounds that can be reduced by various pharmacological treatments (De Vry et al, Eur. J. Pharmacol. 1993, 249, 331-339; Sanchez, Eur. J. Pharmacol. 2003, 463, 133-143). […] Therefore, a foot shock-induced vocalization paradigm in adult rats was used to assess in vivo efficacy of centrally acting GABAB receptor ligands. Behavioral measurements were carried out on male Wistar rats (200-250 g, Toxicoop, Hungary or Janvier, France). Rats were housed in groups of four in plastic cages with a wire grid top in a temperature and light-controlled laboratory animal care unit (22±2° C., 12-h light/dark cycle, lights on at 6:00 AM) with ad libitum access to commercial pellet rat food and tap water. Investigations were approved by the Local Ethical Committee of Gedeon Richter Plc. and were carried out in strict compliance with the European Directive 2010/63/EU regarding the care and use of laboratory animals for experimental procedures and all efforts were made to minimize the number of animals as well as their suffering. In order to evoke emission of ultrasounds, animals were footshocked after a habituation period of 30 s (6 shocks, 1 s, 0.8 mA each, inter-shock interval 10 s) in a sound attenuated shocking chamber (Experimetria, 40×40×80 cm). […] Vocalizations were measured right after the last footshock for 10 min with a Metris Sonotrack system and the total time of vocalizations was registered. Vocalization of parallel vehicle treated animals was considered as control value and inhibition percent was calculated for each compound.
In Table 2 compounds of this invention measured in the USV assay are listed.

The term inhibition in vivo denotes the change of the read-out against control, counted positive when it falls. Read a low inhibition in vivo as little suppression.

T1 sequence (O88871 41-940): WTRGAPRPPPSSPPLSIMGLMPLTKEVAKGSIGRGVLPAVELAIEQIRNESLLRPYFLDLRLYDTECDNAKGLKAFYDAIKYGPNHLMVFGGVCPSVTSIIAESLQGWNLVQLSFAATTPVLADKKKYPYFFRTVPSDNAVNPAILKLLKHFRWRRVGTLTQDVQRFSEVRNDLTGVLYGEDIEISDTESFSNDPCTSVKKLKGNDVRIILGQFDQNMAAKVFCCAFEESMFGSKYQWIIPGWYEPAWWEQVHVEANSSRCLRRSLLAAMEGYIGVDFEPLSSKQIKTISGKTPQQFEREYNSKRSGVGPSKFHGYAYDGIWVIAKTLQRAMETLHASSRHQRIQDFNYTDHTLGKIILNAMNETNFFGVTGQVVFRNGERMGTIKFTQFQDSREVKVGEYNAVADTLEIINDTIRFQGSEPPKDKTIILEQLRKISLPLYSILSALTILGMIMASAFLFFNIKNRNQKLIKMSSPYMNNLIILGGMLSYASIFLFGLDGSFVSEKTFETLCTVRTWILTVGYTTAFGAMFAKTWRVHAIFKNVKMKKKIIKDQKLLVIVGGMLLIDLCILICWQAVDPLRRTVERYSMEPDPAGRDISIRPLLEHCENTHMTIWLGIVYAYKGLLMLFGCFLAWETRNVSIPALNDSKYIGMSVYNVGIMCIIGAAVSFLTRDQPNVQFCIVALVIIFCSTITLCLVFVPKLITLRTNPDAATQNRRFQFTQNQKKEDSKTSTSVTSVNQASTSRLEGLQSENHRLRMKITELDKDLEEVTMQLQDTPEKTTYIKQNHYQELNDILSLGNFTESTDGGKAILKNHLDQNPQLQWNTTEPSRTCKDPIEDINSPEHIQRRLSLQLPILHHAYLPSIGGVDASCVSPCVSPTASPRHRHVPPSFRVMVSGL
T1 sequence (Q9Z0U4 17-960 limits assumed): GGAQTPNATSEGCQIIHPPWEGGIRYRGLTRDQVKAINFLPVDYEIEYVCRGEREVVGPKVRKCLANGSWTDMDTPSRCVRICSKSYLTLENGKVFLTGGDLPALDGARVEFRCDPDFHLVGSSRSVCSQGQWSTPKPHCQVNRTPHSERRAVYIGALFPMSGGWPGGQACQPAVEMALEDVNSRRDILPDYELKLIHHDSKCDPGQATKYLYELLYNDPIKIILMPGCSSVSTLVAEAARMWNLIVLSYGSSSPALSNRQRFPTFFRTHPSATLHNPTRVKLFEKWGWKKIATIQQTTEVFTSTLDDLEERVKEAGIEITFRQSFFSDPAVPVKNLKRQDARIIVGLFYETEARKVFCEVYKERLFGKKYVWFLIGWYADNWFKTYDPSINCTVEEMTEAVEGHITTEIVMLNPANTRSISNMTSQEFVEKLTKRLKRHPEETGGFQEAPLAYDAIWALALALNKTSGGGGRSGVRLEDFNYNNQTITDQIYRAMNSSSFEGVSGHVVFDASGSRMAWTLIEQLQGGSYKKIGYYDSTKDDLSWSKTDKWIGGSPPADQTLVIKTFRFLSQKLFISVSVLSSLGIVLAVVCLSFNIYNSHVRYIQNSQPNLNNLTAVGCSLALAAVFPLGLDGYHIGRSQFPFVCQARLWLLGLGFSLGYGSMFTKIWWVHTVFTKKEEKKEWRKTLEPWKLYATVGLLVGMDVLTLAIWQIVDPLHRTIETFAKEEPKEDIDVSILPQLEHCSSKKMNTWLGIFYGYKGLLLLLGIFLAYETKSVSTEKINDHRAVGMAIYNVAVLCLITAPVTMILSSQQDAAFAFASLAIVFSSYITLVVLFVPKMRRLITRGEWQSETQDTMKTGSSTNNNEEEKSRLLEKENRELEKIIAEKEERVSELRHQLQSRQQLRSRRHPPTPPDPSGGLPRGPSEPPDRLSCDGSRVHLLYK

Take `Cc1cc([C@H]2CN(C=O)CC[C@H]2C)n2nc([C@H]3CC[C@H](C(F)(F)F)CC3)cc2n1` (single isomer, unassigned) [Example 9]: in test [1], the EC50 is below 100 nM. This compound also showed an inhibition in vivo at 1 mg/kg in test [2] of 71%. The corresponding values for `CCc1c(C)nc2cc([C@H]3CC[C@H](C(F)(F)F)CC3)nn2c1[C@@H]1CN(C(C)=O)CC[C@@H]1C` [Example 66] are below 100 nM and 49%. Turning to `CNC(=O)N1CCO[C@@H](c2cc(C)nc3cc([C@H]4CC[C@H](C(F)(F)F)CC4)nn23)C1` [Example 111], the EC50 in test [1] fell in the range of 100 to 1000 nM. This compound displayed an inhibition in vivo at 1 mg/kg in test [2] of 44%. In the case of `Cc1cc([C@H]2CN(C(=O)N(C)C)CCO2)n2nc([C@H]3CC[C@H](C(F)(F)F)CC3)cc2n1` [Example 112], the EC50 in test [1] lay within 100 to 1000 nM. This compound also had an inhibition in vivo at 1 mg/kg in test [2] of 72%. `CCc1c(C)nc2cc([C@H]3CC[C@H](C(F)(F)F)CC3)nn2c1[C@H]1CCCN(C(C)=O)C1` [Example 42]: the EC50 in test [1] was below 100 nM. For the same compound, in test [2], testing at 10 mg/kg gave an inhibition in vivo of 91%. `COC(=O)N1CCO[C@@H](c2cc(C)nc3cc([C@H]4CC[C@H](C(C)(C)C)CC4)nn23)C1` [Example 132]: the EC50 in test [1] is below 100 nM. The compound further displayed an inhibition in vivo at 1 mg/kg in test [2] of 65%.

Turning to `COC(=O)N1CCO[C@@H](c2cc(C)nc3cc([C@H]4CC[C@H](C(F)(F)F)CC4)nn23)C1` [Example 91], the EC50 in test [1] is below 100 nM. Besides, testing at 1 mg/kg in test [2] gave an inhibition in vivo of 89%.

For the compound `COC(=O)N1CCC[C@@H](c2c(C)c(C)nc3cc([C@H]4CC[C@H](C(F)(F)F)CC4)nn23)C1` [Example 47], the EC50 in test [1] fell in the range of 100 to 1000 nM. Besides, in test [2], at 10 mg/kg the inhibition in vivo was 63%. As for `Cc1cc([C@H]2CN(C(=O)c3cocn3)CCO2)n2nc([C@H]3CC[C@H](C(F)(F)F)CC3)cc2n1` [Example 113], the EC50 in test [1] lay within 100 to 1000 nM. Besides, testing at 1 mg/kg in test [2] gave an inhibition in vivo of 66%. In the case of `CC(=O)N1CCC[C@@H](c2cc(C)nc3cc([C@H]4CC[C@H](C(F)(F)F)CC4)nn23)C1` [Example 32], the EC50 in test [1] fell in the range of 100 to 1000 nM. Moreover, the inhibition in vivo at 3 mg/kg in test [2] was determined as 68%. For the compound `Cc1nc2cc([C@H]3CC[C@H](C(F)(F)F)CC3)nn2c([C@@H]2CN(C=O)CC[C@@H]2C)c1C` [Example 58], the EC50 in test [1] was below 100 nM. For the same compound, the inhibition in vivo at 1 mg/kg in test [2] was determined as 44%. For `CCc1c(C)nc2cc([C@H]3CC[C@H](C(F)(F)F)CC3)nn2c1[C@@H]1CCCN(C(C)=O)C1` [Example 39], in test [1], the EC50 was in the range of 100 to 1000 nM. For the same compound, in test [2], at 3 mg/kg the inhibition in vivo was 33%.

With `CCOC(=O)N1CCO[C@@H](c2cc(C)nc3cc([C@H]4CC[C@H](C(F)(F)F)CC4)nn23)C1` [Example 116], the EC50 in test [1] lay in the range of 100 to 1000 nM. The compound also came in with an inhibition in vivo at 1 mg/kg in test [2] of 0%. With `CCc1c(C)nc2cc([C@H]3CC[C@H](C(F)(F)F)CC3)nn2c1C1CN(C=O)CCO1` (stereo partly drawn) [Example 82], the EC50 in test [1] was below 100 nM. Moreover, in test [2], testing at 1 mg/kg gave an inhibition in vivo of 86%. For the compound `COC(=O)N1CCO[C@@H](c2cc(C)nc3c(F)c([C@H]4CC[C@H](C(F)(F)F)CC4)nn23)C1` [Example 117], in test [1], the EC50 is below 100 nM. The inhibition in vivo at 1 mg/kg in test [2] worked out at 73%. On to `CC(=O)N1CCC[C@H](c2c(C)c(C)nc3cc([C@H]4CC[C@H](C(F)(F)F)CC4)nn23)C1` [Example 43], for which the EC50 in test [1] is 100 to 1000 nM. In test [2], the inhibition in vivo at 10 mg/kg turned out to be 41%. Consider `COC(=O)N1CC[C@@H](C)[C@H](c2cc(C)nc3cc([C@H]4CC[C@H](C(F)(F)F)CC4)nn23)C1` (single isomer, unassigned) [Example 5], for which the EC50 in test [1] was below 100 nM. In addition, at 1 mg/kg the inhibition in vivo in test [2] was 88%. `Cc1nc2cc([C@H]3CC[C@H](C(F)(F)F)CC3)nn2c(C2CN(C=O)CC(F)(F)C2)c1C` (stereo partly drawn) [Example 75]: the EC50 in test [1] was below 100 nM. This compound also had an inhibition in vivo at 1 mg/kg in test [2] of 19%.

On to `CC(=O)N1CC[C@H](C)[C@H](c2cc(C)nc3c(F)c([C@H]4CC[C@H](C(F)(F)F)CC4)nn23)C1` (racemic) [Example 158], for which the EC50 in test [1] lay within 100 to 1000 nM. This compound gave an inhibition in vivo at 3 mg/kg in test [2] of 35%.

Turning to `Cc1cc([C@H]2CN(C=O)CC[C@@H]2C)n2nc([C@H]3CC[C@H](C(F)(F)F)CC3)cc2n1` [Example 68], the EC50 in test [1] is below 100 nM. In addition, the inhibition in vivo at 1 mg/kg in test [2] came to 39%. As to `Cc1cc(C2CN(C)CCC2(C)C)n2nc([C@H]3CC[C@H](C(F)(F)F)CC3)cc2n1` (stereo partly drawn) [Example 61], the EC50 in test [1] fell in the range of 100 to 1000 nM. As to `COC(=O)N1C[C@H](c2cc(C)nc3cc([C@H]4CC[C@H](C(F)(F)F)CC4)nn23)OC[C@@H]1C` [Example 102], the EC50 in test [1] was below 100 nM. For `Cc1nc2cc([C@H]3CC[C@H](C(F)(F)F)CC3)nn2c([C@]2(C)CCCN(CC(F)(F)F)C2)c1C` [Example 48], the EC50 in test [1] is 100 to 1000 nM. As for `Cc1cc(C2CCCOC2)n2nc([C@H]3CC[C@H](C(F)(F)F)CC3)cc2n1` (mixture of isomers) [Example 161], in test [1], the EC50 lay in the range of 100 to 1000 nM. Regarding `CCC1CCN(C(=O)OC)CC1c1cc(C)nc2cc([C@H]3CC[C@H](C(F)(F)F)CC3)nn12` (stereo partly drawn) [Example 67], the EC50 in test [1] was 100 to 1000 nM. `COC(=O)N1CC[C@@H](C)[C@@H](c2cc(C)nc3cc([C@H]4CC[C@H](C(F)(F)F)CC4)nn23)C1` (single isomer, unassigned) [Example 7]: the EC50 in test [1] is 100 to 1000 nM.

For the compound `Cc1cc([C@@H]2CN(C=O)[C@@H](C)CO2)n2nc([C@H]3CC[C@H](C(F)(F)F)CC3)cc2n1` [Example 98], in test [1], the EC50 is 1000 to 10000 nM. Turning to `Cc1cc([C@@H]2CN(C(=O)N(C)C)CC[C@@H]2C)n2nc([C@H]3CC[C@H](C(F)(F)F)CC3)c(F)c2n1` (racemic) [Example 46], the EC50 in test [1] was in the range of 100 to 1000 nM. In the case of `CC(=O)N1CC[C@H](C)[C@H](c2c(C)c(C)nc3cc([C@H]4CC[C@H](C(F)(F)F)CC4)nn23)C1` (racemic) [Example 55], the EC50 in test [1] lay in the range of 100 to 1000 nM. In the case of `Cc1cc([C@H]2CCCN(C=O)[C@@H]2C)n2nc([C@H]3CC[C@H](C(F)(F)F)CC3)cc2n1` [Example 89], in test [1], the EC50 was in the range of 100 to 1000 nM.

For `COC(=O)N1C[C@H](C)O[C@@H](c2cc(C)nc3cc([C@H]4CC[C@H](C(F)(F)F)CC4)nn23)C1` [Example 125], the EC50 in test [1] lay in the range of 100 to 1000 nM.
